According to patent US4518529A, “Antibiotics C-19393S2” (Takeda Chemical Industries, Ltd., priority 1979, dated 1985):
≈ marks a conversion by molar mass, not a printed value. Entries after “also recorded” stand apart in the source; their conditions may differ. Structures can show the parent of a compound that is named as a salt. Where two headings read alike, the source gives them in different places.

Columns and labels:
[1] = system: Escherichia coli TN 659; test: Increasing effect on antimicrobial activity of ampicillin and cefotiam by C-19393S2, E. coli TN 659; format: cell-based; details: read-out: Minimum Inhibitory Concentration
From the text: (§1) *Clinically isolated strains having the ability to produce betalactamase
(§2) Medium: Heart Infusion Agar (Eiken Chemical Co., Japan)

[2] = system: Klebsiella pneumoniae TN 1725; test: Increasing effect on antimicrobial activity of ampicillin and cefotiam by C-19393S2, K. pneumoniae TN 1725; format: cell-based; details: read-out: Minimum Inhibitory Concentration
From the text: as §1, §2

[3] = system: Proteus vulgaris TN 224; test: Increasing effect on antimicrobial activity of ampicillin and cefotiam by C-19393S2, P. vulgaris TN 224; format: cell-based; details: read-out: Minimum Inhibitory Concentration
From the text: as §1, §2

[4] = system: gram-positive and gram-negative bacteria; test: Antimicrobial activity (in words); format: cell-based
[5] = Solubility; format: physicochemical
[6] = Stability; format: physicochemical
[7] = system: betalactamase; test: Betalactamase inhibiting activity; format: biochemical
[8] = system: various bacteria which exhibit resistance to penicillin derivatives and/or cephalosporin derivatives; test: Sensitivity of resistant bacteria to penicillin and/or cephalosporin derivatives; format: cell-based; details: to penicillin derivatives and/or cephalosporin derivatives (ampicillin, cefotiam)
[9] = system: Escherichia coli NIHJ; test: Antimicrobial spectrum, MIC on bouillon agar, E. coli NIHJ; format: cell-based; details: read-out: Minimum Inhibitory Concentration
From the text: (§3) The biological properties of C-19393S2 are described below. The antibiotic spectrum of C-19393S2 sodium salt against various microorganisms are shown below in Table 4.

[10] = system: Salmonella typhimurium IFO 12529; test: Antimicrobial spectrum, MIC on bouillon agar, S. typhimurium; format: cell-based; details: Salmonella enterica, read-out: Minimum Inhibitory Concentration
From the text: as §3

[11] = system: Klebsiella pneumoniae IFO 3318; test: Antimicrobial spectrum, MIC on bouillon agar, K. pneumoniae; format: cell-based; details: IFO3318, read-out: Minimum Inhibitory Concentration
From the text: as §3

[12] = system: Proteus vulgaris IFO 3045; test: Antimicrobial spectrum, MIC on bouillon agar, P. vulgaris; format: cell-based; details: IFO3045, read-out: Minimum Inhibitory Concentration
From the text: as §3

[13] = system: Proteus mirabilis IFO 3845; test: Antimicrobial spectrum, MIC on bouillon agar, P. mirabilis; format: cell-based; details: IFO3845, read-out: Minimum Inhibitory Concentration
From the text: as §3

[14] = system: Serratia marcescens IFO 12648; test: Antimicrobial spectrum, MIC on bouillon agar, S. marcescens; format: cell-based; details: IFO12648, read-out: Minimum Inhibitory Concentration
From the text: as §3

[15] = system: Alcaligenes faecalis IFO 13111; test: Antimicrobial spectrum, MIC on bouillon agar, A. faecalis; format: cell-based; details: IFO13111, read-out: Minimum Inhibitory Concentration
From the text: as §3

[16] = system: Pseudomonas aeruginosa IFO 3080; test: Antimicrobial spectrum, MIC on bouillon agar, P. aeruginosa; format: cell-based; details: IFO3080, read-out: Minimum Inhibitory Concentration
From the text: as §3

[17] = system: Comamonas terrigena IFO 13299; test: Antimicrobial spectrum, MIC on bouillon agar, C. terrigena; format: cell-based; details: IFO13299, read-out: Minimum Inhibitory Concentration
From the text: as §3

[18] = system: Staphylococcus aureus 209P; test: Antimicrobial spectrum, MIC on bouillon agar, S. aureus; format: cell-based; details: read-out: Minimum Inhibitory Concentration
From the text: as §3

[19] = system: Sarcina lutea IFO 3232; test: Antimicrobial spectrum, MIC on bouillon agar, S. lutea; format: cell-based; details: Micrococcus luteus, IFO3232, read-out: Minimum Inhibitory Concentration
From the text: as §3

[20] = system: Bacillus subtilis IFO 3513; test: Antimicrobial spectrum, MIC on bouillon agar, B. subtilis; format: cell-based; details: IFO3513, read-out: Minimum Inhibitory Concentration
From the text: as §3

[21] = system: Bacillus cereus IFO 3460; test: Antimicrobial spectrum, MIC on bouillon agar, B. cereus; format: cell-based; details: IFO3460, read-out: Minimum Inhibitory Concentration
From the text: as §3

[22] = Umezawa et al., The Journal of Antibiotics, Vol. 26, pages 51-54, 1973; cited from earlier work
[23] = TN659, Escherichia coli TN 659, C-19393S2 0, Heart Infusion Agar
[24] = TN659, Escherichia coli TN 659, with C-19393S2 1 μg/ml, Heart Infusion Agar
[25] = TN659, Escherichia coli TN 659, with C-19393S2 5 μg/ml, Heart Infusion Agar
[26] = TN1725, Klebsiella pneumoniae TN 1725, C-19393S2 0, Heart Infusion Agar
[27] = TN1725, Klebsiella pneumoniae TN 1725, with C-19393S2 1 μg/ml, Heart Infusion Agar
[28] = TN1725, Klebsiella pneumoniae TN 1725, with C-19393S2 5 μg/ml, Heart Infusion Agar
[29] = TN224, Proteus vulgaris TN 224, C-19393S2 0, Heart Infusion Agar
[30] = TN224, Proteus vulgaris TN 224, with C-19393S2 1 μg/ml, Heart Infusion Agar
[31] = TN224, Proteus vulgaris TN 224, with C-19393S2 5 μg/ml, Heart Infusion Agar
[32] = aqueous solution in a neutral pH region
[33] = comparison with MM-4550 (MC 696-SY2-A)

CC1(C)S[C@@H]2[C@H](NC(=O)[C@H](N)c3ccccc3)C(=O)N2[C@H]1C(=O)O [Ampicillin]
MIC [1, 23]: > 800 µg/mL
MIC [1, 24]: 3.13 µg/mL (≈ 8.96 µM)
MIC [1, 25]: ≤ 0.003 µg/mL
MIC [2, 26]: 800 µg/mL (≈ 2290 µM)
MIC [2, 27]: 50 µg/mL (≈ 143 µM)
MIC [2, 28]: 0.78 µg/mL (≈ 2.23 µM)
MIC [3, 29]: 400 µg/mL (≈ 1140 µM)
MIC [3, 30]: 1.56 µg/mL (≈ 4.46 µM)
MIC [3, 31]: 1.56 µg/mL (≈ 4.46 µM)

CC(=O)N/C=C/[S+]([O-])C1=C(C(=O)O)N2C(=O)C(C(C)(C)O)C2C1 (stereo not shown) [Antibiotic C-19393H2]
antimicrobial activity [4]: exhibits antibacterial activity against gram-positive and gram-negative bacteria; also recorded: has antimicrobial activity against gram-positive and gram-negative bacteria
Solubility ([5]; water, listed as H2): water-soluble
Stability [6, 32]: stable
Stability [6, 33]: stable

CC(=O)N/C=C/[S+]([O-])C1=C(C(=O)O)N2C(=O)C(C(C)(C)OS(=O)(=O)O)C2C1 (stereo not shown) [Antibiotic C-19393S2]
antimicrobial activity [4]: exhibits an antimicrobial activity against gram-positive and gram-negative bacteria
antimicrobial activity ([4]; listed as Antibiotic C-19393S2): active against gram-positive and gram-negative bacteria
betalactamase inhibiting activity [7]: strong betalactamase inhibiting activity; also recorded: exhibits a beta-lactamase inhibiting activity
increase of sensitivity of resistant bacteria [8]: increases markedly the sensitivity; also recorded: markedly increases the sensitivity
Solubility ([5]; water): water-soluble
Stability [6, 32]: stable
Stability [6, 33]: stable

CC(=O)N/C=C/[S+]([O-])C1=C(C(=O)O)N2C(=O)C(C(C)(C)O)C2C1 (stereo not shown) [C-19393H2 sodium salt]
MIC [9]: 0.08 µg/mL
MIC [10]: 0.31 µg/mL
MIC [11]: 0.31 µg/mL
MIC [12]: 5 µg/mL
MIC [13]: 5 µg/mL
MIC [14]: 0.31 µg/mL
MIC [15]: 5 µg/mL
MIC [16]: 10 µg/mL
MIC [17]: 0.16 µg/mL
MIC [18]: 0.63 µg/mL
MIC [19]: 0.31 µg/mL
MIC [20]: 0.31 µg/mL
MIC [21]: 10 µg/mL
Solubility ([5]; acetone): sparingly soluble
Solubility ([5]; butanol): sparingly soluble
Solubility ([5]; chloroform): Insoluble
Solubility ([5]; ethanol): sparingly soluble
Solubility ([5]; ethyl acetate): Insoluble
Solubility ([5]; methanol): soluble
Solubility ([5]; water): soluble

CC(=O)N/C=C/[S+]([O-])C1=C(C(=O)O)N2C(=O)C(C(C)(C)OS(=O)(=O)O)C2C1 (stereo not shown) [C-19393S2 disodium salt]
MIC [9]: 12.5 to 25 µg/mL
MIC [10]: 12.5 µg/mL
MIC [11]: 12.5 µg/mL
MIC [12]: 100 µg/mL
MIC [13]: 50 µg/mL
MIC [14]: 25 µg/mL
MIC [15]: 50 µg/mL
MIC [16]: > 100 µg/mL
MIC [17]: 6.25 µg/mL
MIC [18]: 12.5 µg/mL
MIC [19]: 12.5 µg/mL
MIC [20]: 12.5 µg/mL
MIC [21]: > 100 µg/mL
Solubility ([5]; acetic acid): soluble
Solubility ([5]; acetone): Insoluble
Solubility ([5]; butanol): sparingly soluble
Solubility ([5]; chloroform): Insoluble
Solubility ([5]; dimethyl sulfoxide): soluble
Solubility ([5]; ethanol): sparingly soluble
Solubility ([5]; ethyl acetate): Insoluble
Solubility ([5]; methanol): soluble
Solubility ([5]; pyridine): sparingly soluble
Solubility ([5]; water): readily soluble

CN(C)CCn1nnnc1SCC1=C(C(=O)O)N2C(=O)[C@@H](NC(=O)Cc3csc(N)n3)[C@H]2SC1 [Cefotiam]
MIC [1, 23]: 0.2 µg/mL (≈ 0.38 µM)
MIC [1, 24]: 0.1 µg/mL (≈ 0.19 µM)
MIC [1, 25]: 0.006 µg/mL (≈ 0.0114 µM)
MIC [2, 26]: 200 µg/mL (≈ 380 µM)
MIC [2, 27]: 0.2 µg/mL (≈ 0.38 µM)
MIC [2, 28]: 0.02 µg/mL (≈ 0.038 µM)
MIC [3, 29]: 200 µg/mL (≈ 380 µM)
MIC [3, 30]: 0.2 µg/mL (≈ 0.38 µM)
MIC [3, 31]: 0.2 µg/mL (≈ 0.38 µM)

CC(=O)N/C=C/[S+]([O-])C1=C(C(=O)O)N2C(=O)C(C(C)OS(=O)(=O)O)C2C1 (stereo not shown) [MC 696-SY2-A]
Stability [22]: very unstable
